The results in this text go back to patent US5849736A, “Isoxazoline and isoxazole fibrinogen receptor antagonists” (The DuPont Merck Pharmaceutical Company, priority 1995, dated 1998).

Where a name gives a salt, the structure may show the parent alone. Where only a bound is given, the exact number is not on record here.

One test concerns platelet aggregation in human platelet rich plasma (PRP). Put plainly: Platelet Aggregation Assay (platelet rich plasma, with or without esterase pretreatment). As to conditions: Platelet, preincubated with 100 IU/mL porcine liver esterase 2 hours at 37° C., 100 μM ADP, read-out: Platelet Aggregation Assay IC50 (with esterase). In kind it is cell-based. Summed up:
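Human citrated PRP from drug-free donors, PPP as 100% transmittance blank; compounds added at various concentrations before agonist (ADP, collagen, arachidonate, epinephrine or thrombin), aggregation followed by light transmittance. Ester prodrugs pretreated (10^-3 M F.C.) with 100 IU/mL porcine liver esterase, 2 h 37 °C; 8 min 37 °C preincubation, then 100 μM ADP, 5 min; % inhibition vs control, IC50.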
Turning to `COC(=O)C(CNC(=O)CC1CC(c2ccc(C(=N)N)cc2)=NO1)NC(=O)OCC(C)C` (stereo not drawn) [Example 531], the IC50 was under 10 µM. With `COC(=O)C(CNC(=O)CC1CC(c2ccc(C(=N)N)cc2)=NO1)NC(=O)OCCC1CC1` (stereo not drawn) [Example 533], the IC50 was under 10 µM. The same measure, in the same setting: in the case of `COC(=O)C(CNC(=O)CC1CC(c2ccc(C(=N)N)cc2)=NO1)NC(=O)OCCC1CCCC1` (stereo not drawn) [Example 535] it was under 10 µM; in that of `COC(=O)C(CNC(=O)CC1CC(c2ccc(C(=N)N)cc2)=NO1)NC(=O)OCCCC(F)(F)F` (stereo not drawn) [Example 537], under 10 µM; in that of `Cc1ccccc1C(=O)N[C@@H](CNC(=O)CC1CC(c2ccc(C(=N)N)cc2)=NO1)C(=O)O` (stereo partly drawn) [Example 540, N^2-methylphenylcarbonyl-N^3-[3-(4-amidinophenyl)isoxazolin-5-(R,S)-ylacetyl]-(S)-2,3-diaminopropionicacid], under 10 µM.

On to `COC(=O)C(CNC(=O)CC1CC(c2ccc(C(=N)N)cc2)=NO1)NS(=O)(=O)c1cc(C)c(Cl)cc1C` (stereo not drawn) [Example 541], for which the IC50 was under 10 µM. For `COC(=O)C(CNC(=O)CC1CC(c2ccc(C(=N)N)cc2)=NO1)NS(=O)(=O)c1cccc(Cl)c1Cl` (stereo not drawn) [Example 542], the IC50 was under 10 µM.

In the case of `COC(=O)C(CNC(=O)CC1CC(c2ccc(C(=N)N)cc2)=NO1)NS(=O)(=O)c1ccccc1Br` (stereo not drawn) [Example 543], the IC50 is under 10 µM. As for `COC(=O)C(CNC(=O)CC1CC(c2ccc(C(=N)N)cc2)=NO1)NS(=O)(=O)c1cccc(Br)c1` (stereo not drawn) [Example 544], the IC50 is under 10 µM. `COC(=O)C(CNC(=O)CC1CC(c2ccc(C(=N)N)cc2)=NO1)NS(=O)(=O)c1ccc(Br)cc1` (stereo not drawn) [Example 545]: the half-maximal inhibitory concentration (IC50) is under 10 µM. As to `COC(=O)C(CNC(=O)CC1CC(c2ccc(C(=N)N)cc2)=NO1)NS(=O)(=O)c1ccc(-c2ccccc2)cc1` (stereo not drawn) [Example 546], the IC50 is under 10 µM. Regarding `COC(=O)C(CNC(=O)CC1CC(c2ccc(C(=N)N)cc2)=NO1)NS(=O)(=O)c1c(C)nn(C)c1Cl` (stereo not drawn) [Example 547], the IC50 was under 10 µM. Same read-out and setting: in the case of `COC(=O)C(CNC(=O)CC1CC(c2ccc(C(=N)N)cc2)=NO1)NS(=O)(=O)c1sccc1Br` (stereo not drawn) [Example 548] it was under 10 µM; in that of `COC(=O)C(CNC(=O)CC1CC(c2ccc(C(=N)N)cc2)=NO1)NS(=O)(=O)c1ccc(Br)s1` (stereo not drawn) [Example 549], under 10 µM; in that of `COC(=O)C(CNC(=O)CC1CC(c2ccc(C(=N)N)cc2)=NO1)NS(=O)(=O)c1ccc(-c2cc(C(F)(F)F)n(C)n2)s1` (stereo not drawn) [Example 550], under 10 µM.

Turning to `COC(=O)C(CNC(=O)CC1CC(c2ccc(C(=N)N)cc2)=NO1)NS(=O)(=O)c1ccc(-c2ccon2)s1` (stereo not drawn) [Example 551], the IC50 was under 10 µM. `COC(=O)C(CNC(=O)CC1CC(c2ccc(C(=N)N)cc2)=NO1)NS(=O)(=O)c1ccc(-c2ccccn2)s1` (stereo not drawn) [Example 552]: the IC50 is under 10 µM. `COC(=O)C(CNC(=O)CC1CC(c2ccc(C(=N)N)cc2)=NO1)NS(=O)(=O)c1sc(NC(C)=O)nc1C` (stereo not drawn) [Example 553]: the IC50 is under 10 µM. As to `COC(=O)C(CNC(=O)CC1CC(c2ccc(C(=N)N)cc2)=NO1)NS(=O)(=O)c1cc2ccccc2s1` (stereo not drawn) [Example 555], the IC50 was under 10 µM. On the same count and under the same terms, to `COC(=O)C(CNC(=O)CC1CC(c2ccc(C(=N)N)cc2)=NO1)NS(=O)(=O)c1sc2ccccc2c1C` (stereo not drawn) [Example 556] belongs under 10 µM; to `CCCCOC(=O)N[C@@H](CNC(=O)CC1CC(c2ccc(NC(=N)N)cc2)=NO1)C(=O)OC` (stereo partly drawn) [Example 602, Methyl N^2-n-butyloxycarbonyl-N^3-[3-(4-guanidinophenyl)isoxazolin-5-(R,S)-ylacetyl]-(S)-2,3-diaminopropionate, trifluoroacetic acid salt], under 10 µM.

Take `COC(=O)CC(CNS(=O)(=O)N(C)C)NC(=O)CC1CC(c2ccc(C(=N)N)cc2)=NO1` (stereo not drawn) [Example 611]: the IC50 is under 10 µM. As for `COC(=O)CC(CN1CCCC1)NC(=O)CC1CC(c2ccc(C(=N)N)cc2)=NO1` (stereo not drawn) [Example 612], the IC50 is under 10 µM. On to `CCCCOC(=O)NC(CNC(=O)CC1CC(c2ccc(C(=N)N)cc2F)=NO1)C(=O)OC` (stereo not drawn) [Example 613], for which the IC50 is under 10 µM. As to `Cn1cnc(S(=O)(=O)NC(CNC(=O)CC2CC(c3ccc(C(=N)N)cc3)=NO2)C(=O)O)c1` (stereo not drawn) [Example 643], the IC50 is under 10 µM. `Cc1nc(C)c(S(=O)(=O)NC(CNC(=O)CC2CC(c3ccc(C(=N)N)cc3)=NO2)C(=O)O)s1` (stereo not drawn) [Example 644]: the IC50 is under 10 µM. For the compound `COC(=O)[C@H](CN(C)C(=O)CC1CC(c2ccc(C(=N)N)cc2)=NO1)NC(=O)OCc1ccccc1` (stereo partly drawn) [Example 651, Methyl N^2-benzyloxycarbonyl-N^3-methyl-N^3-[3-(4-amidinophenyl)isoxazolin-5-(R,S)-ylacetyl]-(S)-2,3-diaminopropionate, trifluoroacetic acid salt], the IC50 was under 10 µM. Same read-out and setting: in the case of `COC(=O)C(CNC(=O)Cc1cc(-c2ccc(C(=N)N)cc2)no1)NC(=O)OCc1ccccc1` (stereo not drawn) [Example 727] it was under 10 µM. For `CCCCOC(=O)NC(CNC(=O)Cc1cc(-c2ccc(C(=N)N)cc2)no1)C(=O)OC` (stereo not drawn) [Example 729], the IC50 was under 10 µM. Still for that read-out and setting: in the case of `Cc1cccc(S(=O)(=O)NC(CNC(=O)Cc2cc(-c3ccc(C(=N)N)cc3)no2)C(=O)O)c1` (stereo not drawn) [Example 798] it was under 10 µM; in that of `CCCCOC(=O)N[C@@H](CNC(=O)CC1=NOC(c2ccc(C(=N)N)cc2)C1)C(=O)OC` (stereo partly drawn) [Example 829, Methyl N^2-n-butyloxycarbonyl-N^3-[5-(4-amidinophenyl)isoxazolin-3-ylacetyl]-(2S)-2,3-diaminopropionate], under 10 µM. For the compound `N=C(N)NCCCC1CC(C(=O)NCC(NC(=O)OCc2ccccc2)C(=O)O)=NO1` (stereo not drawn) [Example 1284], the IC50 was under 10 µM. In the case of `N=C(N)NCCCCC1CC(C(=O)NCC(NC(=O)OCc2ccccc2)C(=O)O)=NO1` (stereo not drawn) [Example 1321], the IC50 is under 10 µM. Turning to `N=C(N)NCCC1CC(C(=O)NCC(NC(=O)OCc2ccccc2)C(=O)O)=NO1` (stereo not drawn) [Example 1525], the IC50 was under 10 µM. Still for that read-out and setting: to `N=C(N)NCCCC1=NOC(CC(=O)NCC(NC(=O)OCc2ccccc2)C(=O)O)C1` (stereo not drawn) [Example 1694] belongs under 10 µM; to `N=C(N)NCCCCC1=NOC(CC(=O)NCC(NC(=O)OCc2ccccc2)C(=O)O)C1` (stereo not drawn) [Example 1731], under 10 µM; to `Cc1noc(C)c1S(=O)(=O)N[C@@H](CNC(=O)C[C@H]1CC(c2ccc(C(=N)N)cc2)=NO1)C(=O)O` [Example 2104], under 10 µM. With `N=C(N)NCCC1=NOC(CC(=O)NCC(NC(=O)OCc2ccccc2)C(=O)O)C1` (stereo not drawn) [Example 2109], the IC50 is under 10 µM. `N=C(N)NCCCCCC1=NOC(CC(=O)NCC(NC(=O)OCc2ccccc2)C(=O)O)C1` (stereo not drawn) [Example 2110]: the IC50 was under 10 µM. With `COC(=O)C(CNC(=O)CC1CC(c2ccc(C(=N)NCc3ccccc3OC)cc2)=NO1)NS(=O)(=O)c1ccccc1C` (stereo not drawn) [Example 2111], the IC50 is under 10 µM. Consider `COc1ccccc1CNC(=N)c1ccc(C2=NOC(CC(=O)NCC(NS(=O)(=O)c3ccccc3C)C(=O)O)C2)cc1` (stereo not drawn) [Example 2112], for which the IC50 was under 10 µM.

For the compound `CCCCNC(=N)c1ccc(C2=NOC(CC(=O)NCC(NS(=O)(=O)c3ccccc3C)C(=O)OC)C2)cc1` (stereo not drawn) [Example 2113], the IC50 is under 10 µM. `CCCCNC(=N)c1ccc(C2=NOC(CC(=O)NCC(NS(=O)(=O)c3ccccc3C)C(=O)O)C2)cc1` (stereo not drawn) [Example 2114]: the IC50 was under 10 µM. For `CCNC(=N)c1ccc(C2=NOC(CC(=O)NCC(NS(=O)(=O)c3ccccc3C)C(=O)OC)C2)cc1` (stereo not drawn) [Example 2115], the IC50 was under 10 µM.

As to `CCNC(=N)c1ccc(C2=NOC(CC(=O)NCC(NS(=O)(=O)c3ccccc3C)C(=O)O)C2)cc1` (stereo not drawn) [Example 2116], the IC50 was under 10 µM.

As for `COC(=O)C(CNC(=O)CC1CC(c2ccc(C(=N)N)cc2)=NO1)NS(=O)(=O)c1ccc(S(=O)(=O)c2ccccc2)s1` (stereo not drawn) [Example 2118], the half-inhibitory concentration (IC50) is under 10 µM.

For `N=C(N)c1ccc(C2=NOC(CC(=O)NCC(NS(=O)(=O)c3ccc(S(=O)(=O)c4ccccc4)s3)C(=O)O)C2)cc1` (stereo not drawn) [Example 2119], the IC50 was under 10 µM. On to `CC(C)(C)OC(=O)NC(=N)c1ccc(C2=NOC(CC(=O)NCC(NS(=O)(=O)c3ccc(S(=O)(=O)c4ccccc4)s3)C(=O)O)C2)cc1` (stereo not drawn) [Example 2120], for which the IC50 was under 10 µM. On the same count and under the same terms, in the case of `N=C(N)NCCC1CC(CCC(=O)NCC(NC(=O)OCc2ccccc2)C(=O)O)=NO1` (stereo not drawn) [Example 2280] it was under 10 µM. `N=C(N)NCC1CC(CCC(=O)NCC(NC(=O)OCc2ccccc2)C(=O)O)=NO1` (stereo not drawn) [Example 2281]: the IC50 was under 10 µM.

Staying with this test, now noted: Platelet, without esterase, read-out: Platelet Aggregation Assay IC50 (without esterase).
With `CCCCCCOC(=O)NC(CNC(=O)CC1CC(c2ccc(C(=N)N)cc2)=NO1)C(=O)O` (stereo not drawn) [Example 530], the IC50 was under 10 µM.

In the case of `CC(C)COC(=O)NC(CNC(=O)CC1CC(c2ccc(C(=N)N)cc2)=NO1)C(=O)O` (stereo not drawn) [Example 532], the IC50 is under 10 µM.

For `N=C(N)c1ccc(C2=NOC(CC(=O)NCC(NC(=O)OCCC3CC3)C(=O)O)C2)cc1` (stereo not drawn) [Example 534], the IC50 was under 10 µM. With `N=C(N)c1ccc(C2=NOC(CC(=O)NCC(NC(=O)OCCCC(F)(F)F)C(=O)O)C2)cc1` (stereo not drawn) [Example 538], the half-inhibitory concentration (IC50) is under 10 µM. Regarding `Cc1cccc(S(=O)(=O)N[C@@H](CNC(=O)CC2CC(c3ccc(C(=N)N)cc3)=NO2)C(=O)O)c1` (stereo partly drawn) [Example 587A, N^2-3-methylphenylsulfonyl-N^3-[3-(4-amidinophenyl)isoxazolin-5S-ylacetyl]-S-2,3-diaminopropionic acid], the IC50 was under 10 µM. Turning to `CCCCOC(=O)NC(CNC(=O)CC1CC(CCCC2CCNCC2)=NO1)C(=O)OC` (stereo not drawn) [Example 616], the IC50 is under 10 µM.

Still in this test, the particulars now being: preincubated with 100 IU/mL porcine liver esterase 2 hours at 37° C., 100 μM ADP, read-out: Platelet Aggregation Assay IC50 (with esterase).
For `CCCS(=O)(=O)NC(CNC(=O)CC1CC(c2ccc(C(=N)N)cc2)=NO1)C(=O)OC` (stereo not drawn) [Example 539], the IC50 was under 10 µM.

As usually defined, the IC50 is the concentration that gives 50% inhibition.
